Measured values as given in ChEMBL document CHEMBL4818986, “Recent progress on HDAC inhibitors with dual targeting capabilities for cancer treatment” (Eur J Med Chem, 2020).
Blank lines part the entries; values can stand above or below the molecule they belong to.

Legend:
[1] = biological target: Class 1 histone deacetylase (Homo sapiens, UniProt Q13547+O15379+Q92769+Q9BY41); assay: Inhibition of HDAC class1 (unknown origin); type: protein assay
CAPAN-1 = assay: Antiproliferative activity against human CAPAN 1 cells incubated for 72 hrs by CCK8 assay; type: functional, cell-based; conditions: CAPAN-1, 72 h
Histone deacetylase 1 [2] = biological target: T1, Histone deacetylase 1 (Homo sapiens, UniProt Q13547); assay: Inhibition of human HDAC1 expressed in baculovirus expression system by fluorescence method
T1 sequence (Q13547 whole entry): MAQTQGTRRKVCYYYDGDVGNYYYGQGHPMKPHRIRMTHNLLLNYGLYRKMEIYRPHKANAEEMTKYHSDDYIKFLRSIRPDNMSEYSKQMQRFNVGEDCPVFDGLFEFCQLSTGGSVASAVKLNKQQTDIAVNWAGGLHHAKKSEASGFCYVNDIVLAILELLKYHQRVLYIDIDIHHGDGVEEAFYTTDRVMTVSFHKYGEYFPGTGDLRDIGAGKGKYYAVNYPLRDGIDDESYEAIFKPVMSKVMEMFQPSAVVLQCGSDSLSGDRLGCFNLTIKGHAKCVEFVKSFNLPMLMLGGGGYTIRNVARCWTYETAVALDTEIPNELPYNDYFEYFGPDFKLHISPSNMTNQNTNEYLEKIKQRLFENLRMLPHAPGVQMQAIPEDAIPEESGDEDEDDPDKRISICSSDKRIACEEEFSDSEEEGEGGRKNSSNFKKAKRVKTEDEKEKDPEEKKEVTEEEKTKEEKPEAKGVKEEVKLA

[3] = biological target: T2, Epidermal growth factor receptor (Homo sapiens, UniProt P00533); assay: Inhibition of EGFR (unknown origin)
T2 sequence (P00533 whole entry): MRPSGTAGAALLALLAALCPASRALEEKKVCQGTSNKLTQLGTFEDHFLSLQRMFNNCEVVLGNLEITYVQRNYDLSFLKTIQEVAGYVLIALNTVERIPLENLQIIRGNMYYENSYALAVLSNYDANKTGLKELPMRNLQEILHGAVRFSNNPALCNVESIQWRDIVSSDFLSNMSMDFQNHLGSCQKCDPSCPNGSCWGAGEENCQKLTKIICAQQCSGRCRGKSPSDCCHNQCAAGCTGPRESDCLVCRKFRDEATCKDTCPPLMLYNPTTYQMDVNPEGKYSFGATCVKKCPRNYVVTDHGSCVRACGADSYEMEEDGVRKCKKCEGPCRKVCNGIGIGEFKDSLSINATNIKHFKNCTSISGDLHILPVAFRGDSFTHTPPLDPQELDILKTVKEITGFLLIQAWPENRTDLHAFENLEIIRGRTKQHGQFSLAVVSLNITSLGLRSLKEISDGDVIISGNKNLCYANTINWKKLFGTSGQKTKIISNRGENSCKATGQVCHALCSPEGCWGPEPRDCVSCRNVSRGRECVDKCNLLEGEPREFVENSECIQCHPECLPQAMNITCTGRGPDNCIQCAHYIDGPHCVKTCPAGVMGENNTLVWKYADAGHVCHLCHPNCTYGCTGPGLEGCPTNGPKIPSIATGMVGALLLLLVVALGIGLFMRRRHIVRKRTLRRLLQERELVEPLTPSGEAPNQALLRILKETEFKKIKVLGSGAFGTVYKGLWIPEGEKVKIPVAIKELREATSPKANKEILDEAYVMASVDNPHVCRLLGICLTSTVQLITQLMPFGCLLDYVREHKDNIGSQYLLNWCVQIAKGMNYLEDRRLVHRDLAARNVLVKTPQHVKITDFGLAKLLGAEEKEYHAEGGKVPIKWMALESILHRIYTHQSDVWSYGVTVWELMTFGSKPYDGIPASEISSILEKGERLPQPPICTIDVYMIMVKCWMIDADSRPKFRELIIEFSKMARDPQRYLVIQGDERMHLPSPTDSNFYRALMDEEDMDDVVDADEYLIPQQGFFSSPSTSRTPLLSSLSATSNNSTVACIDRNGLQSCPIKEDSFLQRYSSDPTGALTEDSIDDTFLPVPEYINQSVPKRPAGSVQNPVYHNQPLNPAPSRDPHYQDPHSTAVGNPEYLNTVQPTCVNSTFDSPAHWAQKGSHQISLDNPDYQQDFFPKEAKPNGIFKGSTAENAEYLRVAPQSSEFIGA

Histone deacetylase 1 [4] = biological target: T1, Histone deacetylase 1; assay: Inhibition of HDAC1 (unknown origin)
A549 [5] = assay: Antiproliferative activity against human A549 cells; type: functional, cell-based
[6] = biological target: T3, Protein deacetylase HDAC6 (Homo sapiens, UniProt Q9UBN7); assay: Inhibition of HDAC6 (unknown origin)
T3 sequence (Q9UBN7 whole entry): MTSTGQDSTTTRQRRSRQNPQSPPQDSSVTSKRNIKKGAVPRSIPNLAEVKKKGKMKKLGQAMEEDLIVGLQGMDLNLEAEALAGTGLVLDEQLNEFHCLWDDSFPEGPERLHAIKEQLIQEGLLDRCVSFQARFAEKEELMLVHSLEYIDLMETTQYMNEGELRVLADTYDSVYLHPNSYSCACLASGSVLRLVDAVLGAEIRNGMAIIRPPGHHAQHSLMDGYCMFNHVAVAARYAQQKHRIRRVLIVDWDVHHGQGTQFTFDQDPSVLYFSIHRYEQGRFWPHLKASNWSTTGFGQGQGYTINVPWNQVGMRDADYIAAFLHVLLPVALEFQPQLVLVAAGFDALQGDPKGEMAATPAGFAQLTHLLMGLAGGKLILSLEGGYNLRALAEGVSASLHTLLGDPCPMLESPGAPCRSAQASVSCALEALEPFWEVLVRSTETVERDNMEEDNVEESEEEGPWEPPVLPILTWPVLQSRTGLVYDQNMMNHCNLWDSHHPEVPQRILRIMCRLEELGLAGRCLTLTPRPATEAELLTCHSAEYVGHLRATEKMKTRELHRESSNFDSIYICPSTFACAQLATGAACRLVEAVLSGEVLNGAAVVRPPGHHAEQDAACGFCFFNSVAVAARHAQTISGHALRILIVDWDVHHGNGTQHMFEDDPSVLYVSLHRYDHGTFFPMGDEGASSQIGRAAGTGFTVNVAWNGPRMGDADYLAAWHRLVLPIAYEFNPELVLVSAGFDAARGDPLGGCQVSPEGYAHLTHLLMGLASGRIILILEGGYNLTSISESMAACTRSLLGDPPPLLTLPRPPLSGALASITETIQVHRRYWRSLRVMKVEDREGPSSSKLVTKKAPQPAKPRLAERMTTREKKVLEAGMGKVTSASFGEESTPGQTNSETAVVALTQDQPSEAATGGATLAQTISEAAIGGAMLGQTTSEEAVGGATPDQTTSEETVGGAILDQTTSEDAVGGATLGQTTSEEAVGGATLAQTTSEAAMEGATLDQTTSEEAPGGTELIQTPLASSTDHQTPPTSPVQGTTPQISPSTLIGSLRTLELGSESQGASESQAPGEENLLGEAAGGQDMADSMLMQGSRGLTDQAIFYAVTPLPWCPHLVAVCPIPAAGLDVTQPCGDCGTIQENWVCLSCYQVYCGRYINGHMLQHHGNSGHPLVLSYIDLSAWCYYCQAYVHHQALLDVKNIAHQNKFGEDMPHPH

[7] = Inhibition of human SCC-25 cell metabolism incubated for 72 hrs by CCK8 assay; type: functional; conditions: SCC-25, 72 h
[8] = biological target: Cyclin-dependent kinase 4 (Homo sapiens, UniProt P11802); assay: Inhibition of CDK4 (unknown origin)
Cyclin-dependent kinase 4, sequence (P11802 whole entry): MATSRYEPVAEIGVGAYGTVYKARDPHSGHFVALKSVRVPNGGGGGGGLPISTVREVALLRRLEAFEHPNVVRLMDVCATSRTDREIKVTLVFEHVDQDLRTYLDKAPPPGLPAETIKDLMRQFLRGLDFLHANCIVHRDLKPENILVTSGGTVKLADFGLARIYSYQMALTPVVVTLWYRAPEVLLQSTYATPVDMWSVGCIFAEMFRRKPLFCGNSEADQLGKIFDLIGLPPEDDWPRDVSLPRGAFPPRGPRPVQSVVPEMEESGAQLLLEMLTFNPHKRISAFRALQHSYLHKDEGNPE

T98G = assay: Antiproliferative activity against human T98G cells assessed as reduction in cell viability incubated for 72 hrs by MTT assay; type: functional, cell-based
U-251 = assay: Antiproliferative activity against human U251 cells assessed as reduction in cell viability incubated for 72 hrs by MTT assay; type: functional, cell-based; conditions: U-251, 72 h
U-87 MG = assay: Antiproliferative activity against human U87 cells assessed as reduction in cell viability incubated for 72 hrs by MTT assay; type: functional, cell-based, U-87MG ATCC
KG-1 = assay: Antiproliferative activity against human KG-1 cells incubated for 72 hrs by MTT assay; type: functional, cell-based; conditions: KG-1, 72 h
MDA-MB-468 = assay: Antiproliferative activity against human MDA-MB-468 cells incubated for 72 hrs by MTT assay; type: functional, cell-based; conditions: MDA-MB-468, 72 h
A549 [9] = assay: Antiproliferative activity against human A549 cells incubated for 72 hrs by MTT assay; type: functional, cell-based; conditions: A549, 72 h
Histone deacetylase [10] = assay: Inhibition of HDAC in human HeLa cell nuclear extracts using Boc-Lys (acetyl)-AMC as substrate preincubated for 5 mins followed by substrate addition and measured after 30 mins by fluorescence based assay
[11] = biological target: T2, Epidermal growth factor receptor; assay: Inhibition of EGFR (unknown origin) incubated for 40 mins by kinase-glo plus luminescence assay
Histone deacetylase [12] = assay: Inhibition of HDAC in human K562 cells using Boc-K(Ac)-AMC as substrate preincubated for 3 hrs followed by substrate addition and measured after 3 hrs by fluorescence method; type: cell-based
[13] = biological target: T4, Histone-lysine N-methyltransferase EHMT2 (Homo sapiens, UniProt Q96KQ7); assay: Inhibition of G9a in human MDA-MB-231 cells assessed as effect on H3K9Me2 levels incubated for 48 hrs by immunofluorescence in-cell western assay; type: cell-based
T4 sequence (Q96KQ7 whole entry): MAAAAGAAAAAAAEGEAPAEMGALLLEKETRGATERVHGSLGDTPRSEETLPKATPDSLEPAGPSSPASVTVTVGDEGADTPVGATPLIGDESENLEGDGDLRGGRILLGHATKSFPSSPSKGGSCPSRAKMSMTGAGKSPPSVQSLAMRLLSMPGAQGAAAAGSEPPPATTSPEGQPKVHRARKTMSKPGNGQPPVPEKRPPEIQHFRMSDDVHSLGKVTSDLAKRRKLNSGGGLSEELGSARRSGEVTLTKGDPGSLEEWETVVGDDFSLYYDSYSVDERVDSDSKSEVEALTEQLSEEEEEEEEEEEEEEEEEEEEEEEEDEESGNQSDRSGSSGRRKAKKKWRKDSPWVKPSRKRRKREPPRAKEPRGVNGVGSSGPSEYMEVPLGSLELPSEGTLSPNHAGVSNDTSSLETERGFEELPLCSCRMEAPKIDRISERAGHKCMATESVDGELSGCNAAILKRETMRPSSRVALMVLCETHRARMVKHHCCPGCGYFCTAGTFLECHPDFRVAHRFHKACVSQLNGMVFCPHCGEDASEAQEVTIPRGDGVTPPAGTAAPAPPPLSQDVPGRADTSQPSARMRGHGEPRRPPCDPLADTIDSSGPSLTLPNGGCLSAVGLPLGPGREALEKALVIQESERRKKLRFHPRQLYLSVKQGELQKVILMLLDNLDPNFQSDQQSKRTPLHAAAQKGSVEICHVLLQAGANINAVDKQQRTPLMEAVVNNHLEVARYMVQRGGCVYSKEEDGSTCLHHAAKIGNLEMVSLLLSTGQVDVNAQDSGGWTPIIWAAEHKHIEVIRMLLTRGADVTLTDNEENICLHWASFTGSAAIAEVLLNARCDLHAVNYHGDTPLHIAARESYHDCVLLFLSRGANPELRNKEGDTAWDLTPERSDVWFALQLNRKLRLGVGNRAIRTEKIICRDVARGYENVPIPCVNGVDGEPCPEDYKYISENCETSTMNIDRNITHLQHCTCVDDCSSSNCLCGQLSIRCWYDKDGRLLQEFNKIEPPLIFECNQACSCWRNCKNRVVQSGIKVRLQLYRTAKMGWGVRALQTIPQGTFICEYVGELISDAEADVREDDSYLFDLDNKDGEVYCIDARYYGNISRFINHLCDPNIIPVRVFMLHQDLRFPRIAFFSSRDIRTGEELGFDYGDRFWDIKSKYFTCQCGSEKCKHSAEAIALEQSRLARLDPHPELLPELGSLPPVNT

THP-1 = assay: Antiproliferative activity against human THP1 incubated for 72 hrs by Trypan Blue reagent based assay; type: functional, cell-based; conditions: THP-1, 72 h
4T1 = assay: Antiproliferative activity against mouse 4T1 cells by EdU alexa fluor high-throughput imaging method; type: functional, cell-based
[14] = biological target: DNA (cytosine-5)-methyltransferase 3A (Homo sapiens, UniProt Q9Y6K1); assay: Inhibition of DNMT3A (unknown origin) using biotinylated DNA oligonucleotides as substrate in presence of [3H-SAM] preincubated for 15 mins followed by substrate and [3H-SAM] addition and measured after 4 hrs by liquid scintillation counting method
DNA (cytosine-5)-methyltransferase 3A, sequence (Q9Y6K1 whole entry, looked up): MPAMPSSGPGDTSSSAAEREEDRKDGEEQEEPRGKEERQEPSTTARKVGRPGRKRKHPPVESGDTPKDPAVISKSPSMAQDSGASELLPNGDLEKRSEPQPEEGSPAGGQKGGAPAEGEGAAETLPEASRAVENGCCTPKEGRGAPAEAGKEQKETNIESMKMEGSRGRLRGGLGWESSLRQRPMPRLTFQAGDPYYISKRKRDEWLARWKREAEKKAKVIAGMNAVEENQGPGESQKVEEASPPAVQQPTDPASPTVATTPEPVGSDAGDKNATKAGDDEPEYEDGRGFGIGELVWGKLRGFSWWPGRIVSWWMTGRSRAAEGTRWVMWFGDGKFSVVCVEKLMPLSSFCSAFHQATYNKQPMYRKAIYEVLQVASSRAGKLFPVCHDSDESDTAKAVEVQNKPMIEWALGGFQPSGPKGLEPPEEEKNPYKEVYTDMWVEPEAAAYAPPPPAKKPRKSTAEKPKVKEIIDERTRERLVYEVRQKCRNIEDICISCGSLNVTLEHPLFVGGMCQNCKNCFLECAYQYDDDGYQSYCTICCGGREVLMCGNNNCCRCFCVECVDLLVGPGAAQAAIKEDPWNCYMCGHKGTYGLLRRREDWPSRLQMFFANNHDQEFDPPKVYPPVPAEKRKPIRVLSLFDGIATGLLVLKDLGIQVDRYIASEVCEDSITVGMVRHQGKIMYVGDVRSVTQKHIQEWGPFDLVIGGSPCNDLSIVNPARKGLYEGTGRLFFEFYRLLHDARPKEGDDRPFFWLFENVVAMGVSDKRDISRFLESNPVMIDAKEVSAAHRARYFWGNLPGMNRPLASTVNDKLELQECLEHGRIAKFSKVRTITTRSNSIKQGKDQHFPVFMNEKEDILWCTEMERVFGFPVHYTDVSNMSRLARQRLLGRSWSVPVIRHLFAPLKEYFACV

Histone deacetylase 1 [15] = biological target: T1, Histone deacetylase 1; assay: Inhibition of HDAC1 (unknown origin) using Ac-peptide as substrate in preincubated for 15 mins followed by substrate addition and measured after 60 mins by fluorescence method
[16] = biological target: DNA (cytosine-5)-methyltransferase 1 (Homo sapiens, UniProt P26358); assay: Inhibition of DNMT1 (unknown origin) using poly(dI-dC)-poly(dI-dC as substrate in presence of [3H-SAM] preincubated for 15 mins followed by substrate and [3H-SAM] addition and measured after 120 mins by liquid scintillation counting method
DNA (cytosine-5)-methyltransferase 1, sequence (P26358 whole entry): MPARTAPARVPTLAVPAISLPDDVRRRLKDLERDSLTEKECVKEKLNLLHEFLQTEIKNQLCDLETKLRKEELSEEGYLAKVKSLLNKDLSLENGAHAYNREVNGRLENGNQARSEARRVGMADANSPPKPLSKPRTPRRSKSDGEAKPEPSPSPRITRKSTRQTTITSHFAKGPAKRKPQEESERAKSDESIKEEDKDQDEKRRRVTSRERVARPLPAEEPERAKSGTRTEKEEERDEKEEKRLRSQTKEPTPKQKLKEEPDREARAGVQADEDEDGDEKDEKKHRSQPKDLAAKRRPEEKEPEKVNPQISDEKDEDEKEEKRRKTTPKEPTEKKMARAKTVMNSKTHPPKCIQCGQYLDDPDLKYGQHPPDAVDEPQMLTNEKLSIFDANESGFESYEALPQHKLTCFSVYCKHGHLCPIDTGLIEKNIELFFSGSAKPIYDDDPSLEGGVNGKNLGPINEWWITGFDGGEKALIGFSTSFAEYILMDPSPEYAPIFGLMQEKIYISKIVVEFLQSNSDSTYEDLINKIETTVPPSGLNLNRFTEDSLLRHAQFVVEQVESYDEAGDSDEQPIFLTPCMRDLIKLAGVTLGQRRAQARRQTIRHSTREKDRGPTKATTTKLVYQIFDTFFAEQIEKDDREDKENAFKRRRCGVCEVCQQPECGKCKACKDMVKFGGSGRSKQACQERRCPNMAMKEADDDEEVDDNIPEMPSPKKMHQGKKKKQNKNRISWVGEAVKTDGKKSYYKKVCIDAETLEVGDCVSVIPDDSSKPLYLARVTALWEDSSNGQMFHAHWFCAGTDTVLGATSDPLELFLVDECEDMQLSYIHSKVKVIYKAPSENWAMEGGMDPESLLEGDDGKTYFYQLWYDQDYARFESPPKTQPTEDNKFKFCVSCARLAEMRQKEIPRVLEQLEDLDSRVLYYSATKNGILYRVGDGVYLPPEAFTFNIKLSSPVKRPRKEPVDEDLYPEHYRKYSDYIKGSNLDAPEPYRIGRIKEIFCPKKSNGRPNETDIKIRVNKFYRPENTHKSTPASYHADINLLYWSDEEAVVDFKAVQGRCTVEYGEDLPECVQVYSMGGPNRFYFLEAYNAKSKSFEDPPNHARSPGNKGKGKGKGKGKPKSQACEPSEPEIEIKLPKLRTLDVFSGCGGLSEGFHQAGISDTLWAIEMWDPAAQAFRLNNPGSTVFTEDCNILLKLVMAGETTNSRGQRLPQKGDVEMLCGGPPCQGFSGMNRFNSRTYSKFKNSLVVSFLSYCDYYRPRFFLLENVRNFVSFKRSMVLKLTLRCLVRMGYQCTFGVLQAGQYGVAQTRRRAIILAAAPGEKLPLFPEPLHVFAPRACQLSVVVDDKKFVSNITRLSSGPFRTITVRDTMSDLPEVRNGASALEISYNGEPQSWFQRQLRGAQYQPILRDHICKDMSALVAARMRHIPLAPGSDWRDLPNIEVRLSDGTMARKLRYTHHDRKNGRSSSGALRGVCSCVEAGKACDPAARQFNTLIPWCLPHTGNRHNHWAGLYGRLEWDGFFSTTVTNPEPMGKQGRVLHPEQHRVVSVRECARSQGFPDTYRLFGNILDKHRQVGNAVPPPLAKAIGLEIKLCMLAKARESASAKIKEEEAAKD

Structure (SMILES): Cn1c(CCCCCCC(=O)NO)nc2cc(N(CCCl)CCCl)ccc21 [TINOSTAMUSTINE]
- IC50 [1]: 6 nM

Structure (SMILES): Cc1sc2c(c1C)C(c1ccc(Cl)cc1)=N[C@@H](CC(=O)Nc1ccc(C(=O)NO)cc1)c1nnc(C)n1-2
- IC50 (CAPAN-1): 150 nM
- IC50 (Histone deacetylase 1 [2]): 21 nM

- IC50 [3]: 10.3 nM
- IC50 (Histone deacetylase 1 [4]): 1.1 nM
- IC50 (A549 [5]): 0.71 µM
- IC50 [6]: 4.3 nM
Structure (SMILES): O=C(CCCCCCn1cc(-c2ccc3ncnc(Nc4ccc(Br)cc4F)c3c2)nn1)NO

- IC50 (Histone deacetylase 1 [4]): 17 nM
- IC50 [8]: 1.2 nM
Structure (SMILES): Cc1nc2ccc(-c3nc(Nc4ccc(NC(=O)CCCCCC(=O)NO)cc4)ncc3F)cc2n1C(C)C
- IC50 [7]: 126 nM

- IC50 (U-251): 7 µM
- IC50 (U-87 MG): 8 µM
Structure (SMILES): O=C(CCCCCNC(=O)c1cc(O)c2c(c1)C(=O)c1cccc(O)c1C2=O)NO
- IC50 (T98G): 5.5 µM

- IC50 (A549 [5]): 16.8 µM
Structure (SMILES): C#Cc1cccc(Nc2ncnc3cc(OCCOC)c(OCCOC)cc23)c1 [ERLOTINIB]

Structure (SMILES): C=CC(=O)Nc1cc(Nc2nccc(-c3cn(C)c4ccccc34)n2)c(OC)cc1N(C)CCN(C)C [OSIMERTINIB]
- IC50 (KG-1): 530 nM
- IC50 (MDA-MB-468): 1300 nM
- IC50 (A549 [9]): 1970 nM

- IC50 (Histone deacetylase [10]): 85 nM
- IC50 (MDA-MB-468): 230 nM
- IC50 (A549 [9]): 2190 nM
- IC50 [11]: 5.7 µM
Structure (SMILES): COc1cc(NC(=O)CCCCCCCCCCC(=O)NO)ccc1Nc1nccc(-c2cn(C)c3ccccc23)n1
- IC50 (KG-1): 240 nM

- IC50 (Histone deacetylase [12]): 5.7 µM
- IC50 [13]: 7.14 µM
Structure (SMILES): COc1ccc2c(NC3CCN(Cc4ccccc4)CC3)nc(NCCNC(=O)CCCCC(=O)NO)nc2c1

- IC50 (THP-1): 15.5 µM
Structure (SMILES): Cc1noc(C)c1-c1ccc2c(c1)c(Cc1ccc(F)cc1)cn2CCCCCCC(=O)NO

- IC50 (4T1): 10 µM
Structure (SMILES): CCC(CC)(c1ccc(OCC(=O)NO)cc1)c1ccc(OCC(O)C(C)(C)C)c(C)c1 (centres undefined)

- IC50 [14]: 930 nM
- IC50 (Histone deacetylase 1 [15]): 4.16 µM
- IC50 [16]: 2020 nM
Structure (SMILES): O=C(NO)C1CCN(CC(O)COC(Cn2c3ccccc3c3ccccc32)Cn2c3ccccc3c3ccccc32)CC1 (centres undefined)
